From patent US20090269403A1, “ORAL CONTRACEPTIVE DOSAGE FORMS AND METHODS OF MAKING SUCH DOSAGE FORMS” (priority 2008, published 2009)

Assays:
[1] = Drug release from enteric-coated drospirenone/ethinylestradiol tablets (USP Type II paddle dissolution); format: physicochemical; conditions: Example 19 enteric-coated tablets, second test run, 75 rpm, 37° C.
Procedure: The rate at which the tablets release the drospirenone and ethinylestradiol was determined. Each tablet was placed in 0.1 N HCl and stirred for 2 hours. After this time, the pH of each of the mixtures containing the tablets was adjusted to pH 6.8 with phosphate buffer and stirred for 4 hours using a USP Type II paddle apparatus at 75 rpm and 37° C. A second test run gave the results listed below in Table 12. A graph of the drug release profiles for the second test run is depicted in FIG. 4.

[2] = water at various pH values; cited from earlier work
[3] = acidic conditions (such as encountered in the gastric environment); cited from earlier work

In the case of C[C@]12CCC(=O)C=C1[C@@H]1C[C@@H]1[C@H]1[C@@H]3[C@@H]4C[C@@H]4[C@@]4(CCC(=O)O4)[C@@]3(C)CC[C@@H]12 [Drospirenone, 6β,7β,15β, 16β-dimethylene-3-oxo-17a-pregn-4-ene-21,17-carbolactone], the “Average % Drug Release (n = 6), 5 min” value ([1]; 5 min, in 0.1 N HCl) is reported as 0.0%, the “Average % Drug Release (n = 6), 120 min” value ([1]; 120 min, end of 2 hours in 0.1 N HCl) is reported as 0.0% and the “Average % Drug Release (n = 6), 130 min” value ([1]; 130 min, 2 hours 0.1 N HCl, then pH 6.8 phosphate buffer) is reported as 29.1%. The “Average % Drug Release (n = 6), 140 min” value ([1]; 140 min, 2 hours 0.1 N HCl, then pH 6.8 phosphate buffer) was 108.4%, the “Average % Drug Release (n = 6), 150 min” value ([1]; 150 min, 2 hours 0.1 N HCl, then pH 6.8 phosphate buffer) was 105.4% and the “Average % Drug Release (n = 6), 165 min” value ([1]; 165 min, 2 hours 0.1 N HCl, then pH 6.8 phosphate buffer) was 105.2%. The “Average % Drug Release (n = 6), 180 min” value ([1]; 180 min, 2 hours 0.1 N HCl, then pH 6.8 phosphate buffer) was 105.0%, the “Average % Drug Release (n = 6), 240 min” value ([1]; 240 min, 2 hours 0.1 N HCl, then pH 6.8 phosphate buffer) was 103.9% and the “Average % Drug Release (n = 6), 300 min” value ([1]; 300 min, 2 hours 0.1 N HCl, then pH 6.8 phosphate buffer) was 102.5%. For the same molecule, the solubility in water [2] was “only sparingly soluble in water” and the “stability under acidic conditions” value [3] was “undergoes isomerization to a form that is inactive”.
